{"source": "patent US12065436B2", "about": "“Cardiac sarcomere inhibitors” (Cytokinetics, Inc., priority 2018, dated 2024)", "biological_target": "bovine cardiac myofibrils (full-length cardiac myosin ATPase in the native sarcomere) (Bos taurus (Bovine), UniProt Q9BE39)", "sequence (Q9BE39 whole entry)": "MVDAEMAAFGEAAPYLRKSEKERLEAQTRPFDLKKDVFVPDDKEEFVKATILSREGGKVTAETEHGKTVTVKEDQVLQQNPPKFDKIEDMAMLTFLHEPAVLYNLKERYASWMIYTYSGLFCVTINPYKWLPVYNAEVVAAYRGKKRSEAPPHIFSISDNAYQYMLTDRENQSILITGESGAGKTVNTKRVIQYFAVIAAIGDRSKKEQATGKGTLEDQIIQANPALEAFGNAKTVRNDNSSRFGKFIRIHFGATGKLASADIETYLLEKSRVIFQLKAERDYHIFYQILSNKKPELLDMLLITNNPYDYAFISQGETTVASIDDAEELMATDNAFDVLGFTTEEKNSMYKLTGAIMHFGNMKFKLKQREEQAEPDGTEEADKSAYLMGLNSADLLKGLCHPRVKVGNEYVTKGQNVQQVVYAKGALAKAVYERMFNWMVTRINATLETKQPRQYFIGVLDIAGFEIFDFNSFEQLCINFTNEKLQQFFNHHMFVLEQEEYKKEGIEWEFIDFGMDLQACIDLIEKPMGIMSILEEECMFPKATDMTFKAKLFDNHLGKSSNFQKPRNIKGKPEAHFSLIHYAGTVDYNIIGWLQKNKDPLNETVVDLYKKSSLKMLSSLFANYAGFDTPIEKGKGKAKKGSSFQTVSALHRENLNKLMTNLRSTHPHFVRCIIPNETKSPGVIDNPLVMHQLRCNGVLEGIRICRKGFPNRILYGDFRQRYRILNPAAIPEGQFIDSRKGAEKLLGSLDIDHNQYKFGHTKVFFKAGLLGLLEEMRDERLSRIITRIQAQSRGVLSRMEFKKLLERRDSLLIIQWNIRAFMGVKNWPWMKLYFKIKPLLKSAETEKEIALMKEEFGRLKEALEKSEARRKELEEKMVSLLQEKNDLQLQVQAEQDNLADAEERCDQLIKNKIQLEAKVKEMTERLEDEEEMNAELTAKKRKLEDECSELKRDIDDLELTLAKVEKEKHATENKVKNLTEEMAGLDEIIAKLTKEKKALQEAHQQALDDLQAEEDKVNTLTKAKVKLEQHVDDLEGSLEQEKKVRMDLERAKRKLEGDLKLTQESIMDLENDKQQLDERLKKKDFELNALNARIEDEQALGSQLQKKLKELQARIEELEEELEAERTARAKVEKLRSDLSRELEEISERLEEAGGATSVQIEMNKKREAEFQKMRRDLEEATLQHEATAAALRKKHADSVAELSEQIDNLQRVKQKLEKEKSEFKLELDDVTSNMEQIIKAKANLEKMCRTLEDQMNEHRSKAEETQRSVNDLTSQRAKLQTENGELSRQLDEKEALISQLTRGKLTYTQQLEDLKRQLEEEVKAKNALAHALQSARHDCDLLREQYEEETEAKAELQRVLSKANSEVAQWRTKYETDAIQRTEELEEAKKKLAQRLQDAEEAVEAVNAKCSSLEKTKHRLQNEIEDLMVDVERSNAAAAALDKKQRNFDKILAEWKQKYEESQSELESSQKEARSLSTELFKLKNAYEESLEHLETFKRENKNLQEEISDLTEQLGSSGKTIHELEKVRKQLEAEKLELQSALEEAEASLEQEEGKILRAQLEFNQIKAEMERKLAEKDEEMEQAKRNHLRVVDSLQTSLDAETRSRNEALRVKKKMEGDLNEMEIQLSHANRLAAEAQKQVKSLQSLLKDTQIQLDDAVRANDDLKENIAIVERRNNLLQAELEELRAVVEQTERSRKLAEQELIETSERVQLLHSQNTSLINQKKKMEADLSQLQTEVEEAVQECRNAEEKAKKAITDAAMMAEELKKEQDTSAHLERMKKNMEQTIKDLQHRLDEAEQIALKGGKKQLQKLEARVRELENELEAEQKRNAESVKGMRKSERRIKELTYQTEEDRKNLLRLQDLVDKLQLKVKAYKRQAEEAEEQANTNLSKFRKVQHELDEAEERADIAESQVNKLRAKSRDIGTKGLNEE", "sequence (P85100 whole entry partner)": "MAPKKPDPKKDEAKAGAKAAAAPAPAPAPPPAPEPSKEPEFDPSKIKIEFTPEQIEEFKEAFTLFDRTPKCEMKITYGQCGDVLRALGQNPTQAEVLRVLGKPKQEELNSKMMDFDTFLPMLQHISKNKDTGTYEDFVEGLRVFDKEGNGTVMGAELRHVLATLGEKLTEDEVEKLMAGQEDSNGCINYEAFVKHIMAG", "sequence (Q3SZE5 whole entry partner)": "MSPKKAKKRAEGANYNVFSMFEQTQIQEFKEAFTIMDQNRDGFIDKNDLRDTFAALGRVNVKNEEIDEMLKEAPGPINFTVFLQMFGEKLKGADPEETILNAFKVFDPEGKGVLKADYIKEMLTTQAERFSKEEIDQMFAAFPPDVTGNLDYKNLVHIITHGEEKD", "assay": "Skinned bovine cardiac myofibril ATPase assay (PK/LDH-coupled)", "assay_type": "biochemical", "details": "Ca2+ activating to 75% of maximal rate; for CDMF75 IC15: concentration giving 15% inhibition; for IC50: read-out: CDMF75 IC50", "summary_of_the_method": "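Triton-skinned bovine left-ventricle myofibrils (1 mg/mL) in PM 12 buffer (12 mM PIPES, 2 mM MgCl2, pH 6.8) with 50 μM ATP, 0.6 mM EGTA and CaCl2 set for 50% or 75% activation. Steady-state ATPase inhibition followed by PK/LDH-coupled NADH oxidation at 340 nm.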"}
{"smiles": "CCc1nc(-c2ccc3c(c2)CC[C@H]3NC(=O)c2cnn(CCOC)c2C)no1", "note": "[Compound 574, (R)-N-(5-(5-ethyl-1,2,4-oxadiazol-3-yl)-2,3-dihydro-1H-inden-1-yl)-1-(2-methoxyethyl)-5-methyl-1H-pyrazole-4-carboxamide]", "values": [{"measurement": "CDMF75 IC15", "value": 1.0, "unit": "µM"}, {"measurement": "IC50", "value": 4.2, "unit": "µM"}]}
{"smiles": "CCc1nc(-c2ccc3c(c2)CC[C@H]3NC(=O)c2cnn(CC(C)(C)O)c2)no1", "note": "[Compound 476, (R)-N-(5-(5-ethyl-1,2,4-oxadiazol-3-yl)-2,3-dihydro-1H-inden-1-yl)-1-(2-hydroxy-2-methylpropyl)-1H-pyrazole-4-carboxamide]", "values": [{"measurement": "CDMF75 IC15", "value": 4.2, "unit": "µM"}, {"measurement": "IC50", "value": 19.5, "unit": "µM"}]}
{"smiles": "CCc1nc(-c2ccc3c(c2)CC[C@H]3NC(=O)[C@@H]2CCC(=O)N2)no1", "note": "[Compound 337, (S)-N-((R)-5-(5-ethyl-1,2,4-oxadiazol-3-yl)-2,3-dihydro-1H-inden-1-yl)-5-oxopyrrolidine-2-carboxamide]", "values": [{"measurement": "CDMF75 IC15", "value": 24.7, "unit": "µM"}, {"measurement": "IC50", "value": "> 39.2", "unit": "µM"}]}
{"smiles": "CCc1nc(-c2ccc3c(c2)OCCC3NC(=O)c2ccnn2C)no1", "note": "(stereo not shown) [Compound 536, N-(7-(5-ethyl-1,2,4-oxadiazol-3-yl)chroman-4-yl)-1-methyl-1H-pyrazole-5-carboxamide]", "values": [{"measurement": "CDMF75 IC15", "value": 1.1, "unit": "µM"}, {"measurement": "IC50", "value": 3.5, "unit": "µM"}]}
{"smiles": "COCc1nc(-c2ccc3c(c2)OCC3NC(=O)c2ccnn2C)no1", "note": "(stereo not shown) [Compound 223, N-(6-(5-(methoxymethyl)-1,2,4-oxadiazol-3-yl)-2,3-dihydrobenzofuran-3-yl)-1-methyl-1H-pyrazole-5-carboxamide]", "values": [{"measurement": "CDMF75 IC15", "value": 1.3, "unit": "µM"}, {"measurement": "IC50", "value": 4.2, "unit": "µM"}]}
{"smiles": "[2H]C([2H])([2H])c1nc(-c2ccc3c(c2)CC[C@H]3NC(=O)c2cn[nH]c2)no1", "note": "[Compound 491, (R)-N-(5-(5-(methyl-d3)-1,2,4-oxadiazol-3-yl)-2,3-dihydro-1H-inden-1-yl)-1H-pyrazole-4-carboxamide]", "values": [{"measurement": "CDMF75 IC15", "value": 1.0, "unit": "µM"}, {"measurement": "IC50", "value": 3.7, "unit": "µM"}]}
{"smiles": "Cc1cc(C(=O)N[C@@H]2CCc3cc(-c4noc(C5CC5)n4)ccc32)ccn1", "note": "[Compound 389, (R)-N-(5-(5-cyclopropyl-1,2,4-oxadiazol-3-yl)-2,3-dihydro-1H-inden-1-yl)-2-methylisonicotinamide]", "values": [{"measurement": "CDMF75 IC15", "value": 0.6, "unit": "µM"}, {"measurement": "IC50", "value": 1.9, "unit": "µM"}]}
{"smiles": "[2H]C([2H])([2H])c1nc(-c2ccc3c(c2)CC[C@H]3NC(=O)c2cnn(C)c2C)no1", "note": "[Compound 250, (R)-1,5-dimethyl-N-(5-(5-(methyl-d3)-1,2,4-oxadiazol-3-yl)-2,3-dihydro-1H-inden-1-yl)-1H-pyrazole-4-carboxamide]", "values": [{"measurement": "CDMF75 IC15", "value": 1.0, "unit": "µM"}, {"measurement": "IC50", "value": 3.6, "unit": "µM"}]}
{"smiles": "[2H]C([2H])([2H])c1nc(-c2ccc3c(c2)OC[C@H]3NC(=O)c2cn(C)nc2C)no1", "note": "[Compound 270, (S)-1,3-dimethyl-N-(6-(5-(methyl-d3)-1,2,4-oxadiazol-3-yl)-2,3-dihydrobenzofuran-3-yl)-1H-pyrazole-4-carboxamide]", "values": [{"measurement": "CDMF75 IC15", "value": 0.9, "unit": "µM"}, {"measurement": "IC50", "value": 3.1, "unit": "µM"}]}
{"smiles": "Cc1noc(-c2ccc3c(c2)CC[C@H]3NC(=O)c2ccnc(C(F)F)c2)n1", "note": "[Compound 716, (R)-2-(difluoromethyl)-N-(5-(3-methyl-1,2,4-oxadiazol-5-yl)-2,3-dihydro-1H-inden-1-yl)isonicotinamide]", "values": [{"measurement": "CDMF75 IC15", "value": 1.4, "unit": "µM"}, {"measurement": "IC50", "value": 5.9, "unit": "µM"}]}
{"smiles": "Cc1c(C(=O)N[C@@H]2CCc3cc(-c4noc(C5CCC5)n4)ccc32)cnn1C", "note": "[Compound 151, (R)-N-(5-(5-cyclobutyl-1,2,4-oxadiazol-3-yl)-2,3-dihydro-1H-inden-1-yl)-1,5-dimethyl-1H-pyrazole-4-carboxamide]", "values": [{"measurement": "CDMF75 IC15", "value": 0.5, "unit": "µM"}, {"measurement": "IC50", "value": 2, "unit": "µM"}]}
{"smiles": "CCc1nc(-c2ccc3c(c2)OC[C@H]3NC(=O)N2CC(O)C2)no1", "note": "[Compound 741, (S)-N-(6-(5-ethyl-1,2,4-oxadiazol-3-yl)-2,3-dihydrobenzofuran-3-yl)-3-hydroxyazetidine-1-carboxamide]", "values": [{"measurement": "CDMF75 IC15", "value": 1.9, "unit": "µM"}, {"measurement": "IC50", "value": 10.5, "unit": "µM"}]}
{"smiles": "CCc1nc(-c2ccc3c(c2)CC[C@H]3NC(=O)c2cccc(C=O)c2)no1", "note": "[Compound 658, (R)-N-(5-(5-ethyl-1,2,4-oxadiazol-3-yl)-2,3-dihydro-1H-inden-1-yl)-3-formylbenzamide]", "values": [{"measurement": "CDMF75 IC15", "value": 0.3, "unit": "µM"}, {"measurement": "IC50", "value": 0.9, "unit": "µM"}]}
{"smiles": "C=Cc1cccc(C(=O)N[C@@H]2CCc3cc(-c4noc(CC)n4)ccc32)c1", "note": "[Compound 657, (R)-N-(5-(5-ethyl-1,2,4-oxadiazol-3-yl)-2,3-dihydro-1H-inden-1-yl)-3-vinylbenzamide]", "values": [{"measurement": "CDMF75 IC15", "value": 0.3, "unit": "µM"}, {"measurement": "IC50", "value": 0.7, "unit": "µM"}]}
{"smiles": "CCc1cc(-c2ccc3c(c2)OC[C@H]3NC(=O)c2cnn(C)c2)no1", "note": "[Compound 423, (S)—N-(6-(5-ethylisoxazol-3-yl)-2,3-dihydrobenzofuran-3-yl)-1-methyl-1H-pyrazole-4-carboxamide]", "values": [{"measurement": "CDMF75 IC15", "value": 0.3, "unit": "µM"}, {"measurement": "IC50", "value": 1.2, "unit": "µM"}]}
{"smiles": "COCc1nc(-c2ccc3c(c2)CC[C@H]3NC(=O)c2cc(C(F)F)ccn2)no1", "note": "[Compound 733, (R)-4-(difluoromethyl)-N-(5-(5-(methoxymethyl)-1,2,4-oxadiazol-3-yl)-2,3-dihydro-1H-inden-1-yl)picolinamide]", "values": [{"measurement": "CDMF75 IC15", "value": 1.5, "unit": "µM"}, {"measurement": "IC50", "value": 8.9, "unit": "µM"}]}
{"smiles": "CC(=O)N1CC[C@H]1C(=O)N[C@@H]1CCc2cc(-c3noc(C4CC4)n3)ccc21", "note": "[Compound 332, (S)-1-acetyl-N-((R)-5-(5-cyclopropyl-1,2,4-oxadiazol-3-yl)-2,3-dihydro-1H-inden-1-yl)azetidine-2-carboxamide]", "values": [{"measurement": "CDMF75 IC15", "value": 39.2, "unit": "µM"}, {"measurement": "IC50", "value": "> 39.2", "unit": "µM"}]}
{"smiles": "Cc1nc(-c2ccc3c(c2)CC[C@H]3NC(=O)c2cnn(C)c2)no1", "note": "[Compound 66, (R)-1-methyl-N-(5-(5-methyl-1,2,4-oxadiazol-3-yl)-2,3-dihydro-1H-inden-1-yl)-1H-pyrazole-4-carboxamide]", "values": [{"measurement": "CDMF75 IC15", "value": 1.2, "unit": "µM"}, {"measurement": "IC50", "value": 4.5, "unit": "µM"}]}
{"smiles": "O=C(N[C@@H]1COc2cc(-c3noc(C(F)F)n3)ccc21)c1cccc(CO)c1", "note": "[Compound 701, (S)-N-(6-(5-(difluoromethyl)-1,2,4-oxadiazol-3-yl)-2,3-dihydrobenzofuran-3-yl)-3-(hydroxymethyl)benzamide]", "values": [{"measurement": "CDMF75 IC15", "value": 0.3, "unit": "µM"}, {"measurement": "IC50", "value": 1.1, "unit": "µM"}]}
{"smiles": "CCc1nc(-c2ccc3c(c2)CC[C@H]3NC(=O)OCCOC)no1", "note": "[Compound 324, 2-methoxyethyl (R)-(5-(5-ethyl-1,2,4-oxadiazol-3-yl)-2,3-dihydro-1H-inden-1-yl)carbamate]", "values": [{"measurement": "CDMF75 IC15", "value": 0.8, "unit": "µM"}, {"measurement": "IC50", "value": 3.2, "unit": "µM"}]}
{"smiles": "Cc1nc(-c2ccc3c(c2)CC[C@H]3NC(=O)c2cn[nH]c2)no1", "note": "[Compound 487, (R)-N-(5-(5-methyl-1,2,4-oxadiazol-3-yl)-2,3-dihydro-1H-inden-1-yl)-1H-pyrazole-4-carboxamide]", "values": [{"measurement": "CDMF75 IC15", "value": 0.9, "unit": "µM"}, {"measurement": "IC50", "value": 3.4, "unit": "µM"}]}
{"smiles": "CCc1nc(-c2ccc3c(c2)CC[C@H]3NC(=O)c2cccc(C)n2)no1", "note": "[Compound 594, (R)-N-(5-(5-ethyl-1,2,4-oxadiazol-3-yl)-2,3-dihydro-1H-inden-1-yl)-6-methylpicolinamide]", "values": [{"measurement": "CDMF75 IC15", "value": 1.4, "unit": "µM"}, {"measurement": "IC50", "value": 5.8, "unit": "µM"}]}
{"smiles": "Cc1nc(-c2ccc3c(c2)CC[C@H]3NC(=O)c2ccnn2C)no1", "note": "[Compound 107, (R)-1-methyl-N-(5-(5-methyl-1,2,4-oxadiazol-3-yl)-2,3-dihydro-1H-inden-1-yl)-1H-pyrazole-5-carboxamide]", "values": [{"measurement": "CDMF75 IC15", "value": 0.5, "unit": "µM"}, {"measurement": "IC50", "value": 1.7, "unit": "µM"}]}
